What was measured:
Format in all cases: cell-based
[1] = biological target: T1, STAT3 (Homo sapiens, UniProt P40763); assay: Western blotting of total STAT1, STAT2, STAT3, STAT4, STAT5 and STAT6 protein in SU-DHL-1 and SUP-M2 cells; set-up: endogenous in cells
Protocol: FIG. 11 is an image showing the Western blotting analysis of total STAT1, STAT2, STAT3, STAT4, STAT5, and STAT6 protein in SU-DHL-1 and SUP-M2 cells treated with Cpd. Nos. 36 and 37. Cpd.
(§1) In vitro cultured cells or xenograft tumors were lysed 1× Cell Lysis Buffer (Cell Signaling Technology, #9803), resolved by SDS-PAGE NuPAGE gel (Thermo Fisher Scientific), and transferred to a PVDF membrane (Bio Rad). For chemiluminescence immunoblotting, membranes were blocked for 1 h using 5% Blotting-Grade Blocker (#1706404, Bio Rad) in 1× Tris-buffered saline with Tween 20 (TBST, Pierce). Antibodies used were: rabbit mAbs for STAT3 (Cell Signaling Technology, #4368, #12640) and p-STAT3 (Y705) (Cell Signaling Technology, #9245, #52075). HRP conjugated goat anti-rabbit IgG (H+L) (#A27036) secondary antibodies was from Thermo Fisher Scientific. GAPDH (Santa Cruz Technology, sc-47724HRP) and actin (Santa Cruz Technology, sc-8432HRP, sc-47778HRP) were loading controls. For fluorescent immunoblotting, membranes were blocked using Odyssey TBS Blocker Buffer (LI-COR). IRDye 680RD and 800CW Dye-labeled secondary antibodies (LI-COR) were used. The washed membranes were scanned using Odyssey CLx imager (LI-COR). The intensity of Western blot signaling was quantitated using the Odyssey software.

[2] = biological target: T2, mutated STAT3 proteins (Homo sapiens, UniProt P40763, Y705F); assay: Western blotting of total STAT3 and p-STAT3 (Y705) in DLD-1 and DLD-1 (Y705F) cells
T2 construct: endogenous in cells; host or cells: DLD-1 (Y705F)
T2 sequence (P40763 2-770 Y705F): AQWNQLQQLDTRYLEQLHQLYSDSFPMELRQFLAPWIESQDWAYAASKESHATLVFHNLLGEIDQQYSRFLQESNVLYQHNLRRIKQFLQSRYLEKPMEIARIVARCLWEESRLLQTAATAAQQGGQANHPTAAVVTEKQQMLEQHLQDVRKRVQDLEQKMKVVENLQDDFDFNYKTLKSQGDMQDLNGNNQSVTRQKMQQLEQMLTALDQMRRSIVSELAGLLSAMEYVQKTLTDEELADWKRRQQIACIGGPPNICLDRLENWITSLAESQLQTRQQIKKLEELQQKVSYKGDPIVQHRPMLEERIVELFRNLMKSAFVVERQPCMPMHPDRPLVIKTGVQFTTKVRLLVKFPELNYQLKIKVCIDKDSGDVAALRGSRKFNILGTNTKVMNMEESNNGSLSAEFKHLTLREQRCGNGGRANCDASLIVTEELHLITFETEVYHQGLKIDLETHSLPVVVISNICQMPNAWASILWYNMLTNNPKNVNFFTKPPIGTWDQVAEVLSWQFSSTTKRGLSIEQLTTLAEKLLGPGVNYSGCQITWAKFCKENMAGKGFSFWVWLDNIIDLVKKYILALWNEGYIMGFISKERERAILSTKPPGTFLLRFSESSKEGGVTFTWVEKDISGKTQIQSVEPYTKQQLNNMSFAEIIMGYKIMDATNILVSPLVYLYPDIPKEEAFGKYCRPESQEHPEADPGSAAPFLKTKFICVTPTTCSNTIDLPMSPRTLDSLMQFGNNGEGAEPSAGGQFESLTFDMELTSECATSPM
Protocol: FIG. 9 is an image showing the Western blotting analysis of total STAT3 protein and phosphorylated STAT3 (Y705) in DLD-1 and DLD-1 (Y705F) cells treated with Cpd.
as §1

[3] = biological target: T1, STAT3; assay: Western blotting of total STAT1, STAT2, STAT3, STAT5 and STAT6 protein in Molm-16 cells; set-up: endogenous in cells; host or cells: MOLM-16
Protocol: FIG. 10 is an image showing the Western blotting analysis of total STAT1, STAT2, STAT3, STAT5, and STAT6 protein in Molm-16 cells treated with Cpd. No. 36. Cpd.
as §1

[4] = system: ALCL and AML cell lines expressing high levels of STAT3; assay: Cell growth inhibition in ALCL and AML cell lines
Text: FIG. 12 is a table showing that Cpd.

T1 sequence (P40763 whole entry): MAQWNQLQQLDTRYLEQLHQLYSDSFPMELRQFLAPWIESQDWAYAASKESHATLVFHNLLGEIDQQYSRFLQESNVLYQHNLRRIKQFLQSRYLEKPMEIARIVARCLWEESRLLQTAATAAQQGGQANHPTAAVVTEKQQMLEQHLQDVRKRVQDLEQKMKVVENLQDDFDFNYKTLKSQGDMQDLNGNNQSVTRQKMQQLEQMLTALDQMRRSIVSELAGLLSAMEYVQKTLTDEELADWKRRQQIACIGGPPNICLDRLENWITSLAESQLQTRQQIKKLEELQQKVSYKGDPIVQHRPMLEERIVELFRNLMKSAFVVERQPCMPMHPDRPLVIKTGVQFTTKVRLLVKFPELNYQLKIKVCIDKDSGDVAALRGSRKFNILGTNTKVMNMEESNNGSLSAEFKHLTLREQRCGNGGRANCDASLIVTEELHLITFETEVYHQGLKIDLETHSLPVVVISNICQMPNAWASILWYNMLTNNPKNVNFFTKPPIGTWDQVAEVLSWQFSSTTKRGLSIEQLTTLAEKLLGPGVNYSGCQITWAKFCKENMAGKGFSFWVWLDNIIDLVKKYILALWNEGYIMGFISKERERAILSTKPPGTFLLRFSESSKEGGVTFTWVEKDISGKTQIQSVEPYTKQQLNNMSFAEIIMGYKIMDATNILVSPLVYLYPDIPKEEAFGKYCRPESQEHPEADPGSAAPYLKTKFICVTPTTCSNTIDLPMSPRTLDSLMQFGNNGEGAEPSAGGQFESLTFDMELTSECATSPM

## NC(=O)CC[C@H](NC(=O)[C@@H]1CC[C@@H]2CCN(C(=O)CCCCCC#Cc3cccc4c3CN(C3CCC(=O)NC3=O)C4=O)C[C@H](NC(=O)c3cc4cc(C(F)(F)P(=O)(O)O)ccc4[nH]3)C(=O)N21)C(=O)NC(c1ccccc1)c1ccccc1 (stereo partly drawn) [Cpd. No. 36, ((2-(((5S,8S,10aR)-8-(((S)-5-amino-1-(benzhydrylamino)-1,5-dioxopentan-2-yl)carbamoyl)-3-(8-(2-(2,6-dioxopiperidin-3-yl)-1-oxoisoindolin-4-yl)oct-7-ynoyl)-6-oxodecahydropyrrolo[1,2-a][1,5]diazocin-5-yl)carbamoyl)-1H-indol-5-yl)difluoromethyl)phosphonic Acid]
[1]
  selectivity of STAT3 degradation over other STAT members (Western blot): specifically degrades STAT3 protein over other STAT members
[2]
  degradation of mutated STAT3 protein (Western blot): degrades mutated STAT3 proteins
[3]
  selectivity of STAT3 degradation over other STAT members (Western blot): specifically degrades STAT3 protein over other STAT members
[4]
  cell growth inhibition: inhibits cell growth
